Values quoted from earlier work as cited in patent US20230405009A1, “METHODS FOR TREATING HEMATOLOGIC MALIGNANCIES WITH AMINO-PYRROLOPYRIMIDINONE COMPOUNDS” (Merck Sharp & Dohme LLC, priority 2020, published 2023).

Tests used:
CLL mouse models = conditions: Reiff et al. Cancer Discovery 2018
DLBCL mouse models = conditions: Reiff et al. Cancer Discovery 2018

## O=C(c1ccc(Oc2ccccc2)cc1Cl)c1c[nH]c2ncnc(N[C@@H]3CC[C@@H](CO)OC3)c12 [Compound A]
CLL mouse models
  efficacy compared with ibrutinib in CLL mouse models: superiority over ibrutinib
DLBCL mouse models
  efficacy compared with ibrutinib in DLBCL mouse models: superiority over ibrutinib
